Experiment [1] deals with PKC. To be noted: AIP 1 μM; cited from earlier work.
The target of experiment [2] is CaMKIV (Homo sapiens, UniProt Q16566). To be noted: AIP 1 μM; cited from earlier work.
The subject of experiment [3] is PKA. To be noted: AIP 1 μM; cited from earlier work.
In experiment [4] the test system is Ca2+/calmodulin-dependent protein kinase II (CaMKII). To be noted: cited from earlier work.
The subject of experiment [5] is immortalized human pleural mesothelial cells (ATCC CRL-9444). Put plainly: IL-6 ELISA in TNF-α-stimulated mesothelial cells. Type of experiment: cell-based. Here is the method: Expression of inflammatory cytokines was induced by applying 1 or 10 ng/ml of TNF-α to cultured mesothelial cells. Briefly, immortalized human pleural mesothelial cells (ATCC CRL-9444) were grown in Medium199 with Earle's BSS, 0.75 mM L-glutamine (Mediatech Inc., Manassas, Va.), 1.25 g/l sodium bicarbonate (Sigma), 3.3 nM epidermal growth factor (EGF) (MBL International, Woburn, Mass.), 40 nM hydrocortisone (Sigma), 870 nM insulin (MBL International), 20 mM HEPES (Sigma), trace elements mixture B (Mediatech Inc., Waltham, Mass.), 10% fetal bovine serum (FBS) (Hyclone), and 1% penicillin/streptomycin (Mediatech Inc., Waltham, Mass.). […] Human mesothelial cells were treated with two different concentrations (1 and 10 ng/mL) of TNF-α for 2, 6, 12, and 24 hours (data not shown). […] Without TNF-α stimulation, mesothelial cells made negligible amounts of IL-6. […] In subsequent experiments designed to determine whether the MMI-0100 peptide ([…]; SEQ ID NO: 1) could reduce TNF-α induced IL-6 expression, both 1 and 10 ng/mL of TNF-α were selected as stimuli. 10 ng/mL of TNF-α is regarded as more physiologically relevant for mesothelial cells.
Prior to cytokine and/or inhibitor treatment, cells were allowed to acclimate in serum-free media consisting of only Medium199 with Earle's BSS, 0.75 mM L-glutamine, 1.25 g/l sodium bicarbonate, 20 mM HEPES, trace elements mixture B (Mediatech Inc., Waltham, Mass.), and 1% penicillin/streptomycin (Mediatech Inc., Waltham, Mass.) for 24 hours. […] Average concentration of IL-6 (pg/ml per 10^5 cells) at each time was determined by cytokine-specific ELISA.
(ELISA stands for enzyme-linked immunosorbent assay.)

Experiment [6] has as its system MK2. Particulars: known small molecule inhibitor of MK2; ATP competitive; cited from earlier work.
Experiment [7] relates to human saphenous vein (HSV). Put plainly: Muscle bath: sodium nitroprusside-induced relaxation of human saphenous vein. Type of experiment: cell-based. To be noted: 50 or 100 μM pretreatment; data not shown. Here is the method: De-identified, discarded segments of human saphenous vein (HSV) were collected from consented patients undergoing coronary artery or peripheral vascular bypass surgeries. HSV segments were stored in a saline solution until the end of the surgical procedure, at which time they were placed in cold transplant harvest buffer (100 mM potassium lactobionate, 25 mM KH2PO4, 5 mM MgSO4, 30 mM Raffinose, 5 mM Adenosine, 3 mM Glutathione, 1 mM Allopurinol, 50 g/L Hydroxyethyl starch, pH 7.4). The vessels were used within 24 hours of harvest. Using sterile technique, HSV segments were transferred to a 60-mm Petri dish under a sterile hood. The edges (0.5 mm) of each segment were removed with a blade and excess adventitial tissue and fat removed with minimal manipulation. HSV segments were cut into consecutive rings of approximately 1.0 mm in width to be utilized for organ culture or muscle bath experiments. Two rings from each segment were immediately fixed in 10% formalin at 37° C. for 30 min to obtain pre-culture intimal thickening measurements.
In preparation for testing vein segment functional viability, HSV rings were weighed and their lengths recorded. To focus on smooth muscle responses, the endothelium was mechanically denuded by rolling the luminal surface of each ring at the tip of a fine vascular forceps before suspension in a muscle bath containing a bicarbonate buffer (120 mM NaCl, 4.7 mM KCl, 1.0 mM MgSO4, 1.0 mM NaH2PO4, 10 mM glucose, 1.5 mM CaCl2, and 25 mM […], pH 7.4) equilibrated with 95% O2 and 5% CO2 at 37° C. The rings were stretched and the length progressively adjusted until maximal tension was obtained. […] Rings were maintained at a resting tension of 1 g, which produces maximal responses to contractile agonists as previously determined, and equilibrated for 2 hours in buffer. […]
HSV rings were first contracted with 110 mM KCl (with equimolar replacement of NaCl in bicarbonate buffer) and the generated force was measured. […] Rings were relaxed with a cumulative log dose of sodium nitroprusside (SNP), a nitric oxide donor, and the force generated was recorded. […] Rings were then incubated with either buffer alone or buffer plus 100 μM of MMI-0100 ([…] (SEQ ID NO: 1)) for 2 hours, followed by treatment with the same doses of PE and SNP, and the forces generated again recorded. Measured force was normalized for ring weight and length and percent relaxation was calculated; force generated with 10^−6 M of PE was set as 0% relaxation.
The enhancing effect of MMI-0100 ([…]; SEQ ID NO: 1) on smooth muscle relaxation was examined by pre-treating harvested human saphenous vein (HSV) with MMI-0100 ([…]; SEQ ID NO: 1) before SNP treatment. […] Percentage of relaxation at 0, 0.01, 0.1, and 1.0 μM of SNP was measured. […]

The text below walks through data of patent US20110288036A1, “Methods for Treating or Preventing Vascular Graft Failure” (priority 2010, published 2011).

CaMKIV, sequence (Q16566 whole entry, species assumed): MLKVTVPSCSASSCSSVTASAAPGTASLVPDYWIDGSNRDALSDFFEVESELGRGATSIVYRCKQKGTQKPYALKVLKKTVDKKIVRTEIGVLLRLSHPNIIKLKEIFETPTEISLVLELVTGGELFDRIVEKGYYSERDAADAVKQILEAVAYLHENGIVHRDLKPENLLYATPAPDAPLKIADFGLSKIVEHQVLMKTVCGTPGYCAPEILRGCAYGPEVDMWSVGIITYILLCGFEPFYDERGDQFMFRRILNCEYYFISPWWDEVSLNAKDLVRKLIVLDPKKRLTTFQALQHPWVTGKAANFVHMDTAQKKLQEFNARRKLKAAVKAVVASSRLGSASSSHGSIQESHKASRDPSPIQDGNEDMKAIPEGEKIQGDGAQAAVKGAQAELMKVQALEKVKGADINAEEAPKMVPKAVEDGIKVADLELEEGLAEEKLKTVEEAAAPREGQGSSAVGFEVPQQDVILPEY

Usually IC50 stands for the concentration at which inhibition is half-maximal. Turning to “autocamtide-2 related inhibitory peptide [AIP]”, the PKC activity result in experiment [1] was “not affected”. Also, the CaMKIV activity entry in experiment [2] is “not affected”. Besides, the PKA activity entry in experiment [3] is given as “not affected”. Moreover, the CaMKII activity result in experiment [4] (AIP 1 μM) was “inhibited completely”. For the same compound, the IC50 in experiment [4] is 100 nM.

Consider `CC(=O)c1c(O)c(C)c(O)c(Cc2c(O)c3c(c(C(=O)/C=C/c4ccccc4)c2O)OC(C)(C)C=C3)c1O` [Rottlerin, reference compound], for which the IL-6 expression result in experiment [5] (TNF-α 1 ng/mL, 6 hrs) is “significantly increased IL-6 expression above that induced by TNF-α alone”; in experiment [5] (TNF-α 1 ng/mL, MMI-0100 1000 or 3000 μM, 6, 12, 24 hours), “ineffective in reducing IL-6 expression”; in experiment [5] (TNF-α 10 ng/mL, 6, 12, 24 hours), “reduced IL-6 expression only at a higher dose (1 μM) and only at twenty-four hours after treatment”. Moreover, the IC50 in experiment [6] was 5000 nM.

With “YARAAARQARA (mammal) [PTD peptide, control peptide (transduction domain, PTD peptide), reference compound]”, the “relaxation response vs untreated control” value in experiment [7] is on record as “no significant difference in relaxation response”.
